Results: patent US20120148637A1, “NANOPARTICULATE OLMESARTAN MEDOXOMIL COMPOSITIONS, PROCESS FOR THE PREPARATION THEREOF AND PHARMACEUTICAL COMPOSITIONS CONTAINING THEM” (priority 2009, published 2012)

Experiments:
[1] = rat, in vivo, po, 20 mg/kg
Protocol: The single oral dose of reference Olmesartan Medoxomil was 20 mg/kg, and that of nanostructured Olmesartan Medoxomil formulation was 75.8 mg/kg which corresponds to 20 mg/kg active agent. Both test substances were administered via gastric tube in a dosing volume of 5 ml/kg. The vehicle of the test items was sterile 0.9% NaCl solution supplemented with 0.25% methylcellulose and the suspension was kept homogenous by continuous stirring during treatment in order to minimize the error resulting from the sedimentation.
Male Wistar rats (purchased from Laboratory Animal Center, University of Szeged) were maintained on a standard pellet rodent diet (Bioplan Ltd, Isaszeg, Hungary) under temperature and light-controlled conditions with tap water available ad libitum. The acclimatization period was at least 4 days. Rats were randomized into groups of 6 and each group was used for blood sampling at different time period after Olmesartan Medoxomil treatment. All animals were fasting for 16 hours before oral treatment. […]
An aliquot of 200 μl serum was combined with 20 μl of internal standard working solution and 1.2 ml methanol for protein precipitation. […] Serum Olmesartan concentrations were determined using a standard curve set up from Olmesartan prepared from Olmesartan Medoxomil by enzymatic hydrolysis. […]

[2] = cited from earlier work
[3] = cited from earlier work; remark: listed apart in the source
[4] = cited from earlier work; remark: listed apart in the source
[5] = rats; cited from earlier work

SMILES | Area under the serum concentration curve between 15 and 360 min (AUC15-360 min) [1] [µg·min/mL] | tmax [1] [h] | solubility in methanol ([2]; methanol) | solubility in water ([2]; water) | absolute bioavailability ([3]; in vivo) | effect of food on bioavailability ([3]; in vivo) | renal clearance ([3]; in vivo) [L/h] | terminal elimination half-life ([3]; in vivo) | total plasma clearance ([3]; in vivo) [L/h] | accumulation in plasma ([3]; once-daily dosing) | bound to plasma proteins [4] [%] | crossing of the blood-brain barrier [5] | distribution to milk [5] | passage across the placental barrier [5]
CCCc1nc(C(C)(C)O)c(C(=O)OCc2oc(=O)oc2C)n1Cc1ccc(-c2ccccc2-c2nnn[nH]2)cc1 [Olmesartan Medoxomil, 2,3-dihydroxy-2-butenyl 4-(1-hydroxy-1-methylethyl)-2-propyl-1-[p-(o-1H-tetrazol-5-ylphenyl)benzyl]imidazole-5-carboxylate, cyclic 2,3-carbonate] | 382.5 | 2 | sparingly soluble | practically insoluble |  |  |  |  |  |  |  |  |  | 
CCCc1nc(C(C)(C)O)c(C(=O)O)n1Cc1ccc(-c2ccccc2-c2nnn[nH]2)cc1 [Olmesartan] |  |  |  |  | approximately 26% | Food does not affect the bioavailability | 0.6 | approximately 13 hours | 1.3 | no accumulation in plasma | 99 | crossed the blood-brain barrier poorly, if at all | distributed to milk at low levels | passed across the placental barrier
